In ChEMBL document CHEMBL5625206, “Design, synthesis, and evaluation of novel pleuromutilin aryl acrylate derivatives as promising broad-spectrum antibiotics especially for combatting multi-drug resistant gram-negative bacteria” (Eur J Med Chem, 2023):
Converted amounts (≈) assume the structure as drawn.

How the values were obtained:
Assay type in all cases: functional
[1] = system: Acinetobacter baumannii; assay: Antibacterial activity against Acinetobacter baumannii ATCC 19606 assessed as bacterial growth inhibition incubated for 24 hrs by CLSI based broth microdilution method
[2] = system: Staphylococcus epidermidis; assay: Antibacterial activity against Staphylococcus epidermidis ATCC 12228 assessed as bacterial growth inhibition incubated for 24 hrs by CLSI based broth microdilution method
[3] = system: Staphylococcus aureus; assay: Antibacterial activity against Staphylococcus aureus ATCC 29213 assessed as bacterial growth inhibition incubated for 24 hrs by CLSI based broth microdilution method
[4] = system: Staphylococcus aureus; assay: Antibacterial activity against Staphylococcus aureus ATCC 25923 assessed as bacterial growth inhibition incubated for 24 hrs by CLSI based broth microdilution method
[5] = system: Escherichia coli; assay: Antibacterial activity against Escherichia coli ATCC 25922 assessed as bacterial growth inhibition incubated for 24 hrs by CLSI based broth microdilution method
[6] = system: Staphylococcus aureus; assay: Antibacterial activity against methicillin-resistant Staphylococcus aureus ATCC 33591 assessed as bacterial growth inhibition incubated for 24 hrs by CLSI based broth microdilution method

Structure (SMILES)	MIC [1]	MIC [2]	MIC [3]	MIC [4]	MIC [5]	MIC [6]
C=C[C@]1(C)C[C@@H](OC(=O)COC(=O)/C=C/c2ccc(Cn3ccnc3)cc2)[C@]2(C)[C@H](C)CC[C@]3(CCC(=O)[C@H]32)[C@@H](C)[C@@H]1O	128 µg/mL (≈ 217 µM)	16 µg/mL (≈ 27.2 µM)	16 µg/mL (≈ 27.2 µM)	8 µg/mL (≈ 13.6 µM)	64 µg/mL (≈ 109 µM)	32 µg/mL (≈ 54.4 µM)
C=C[C@]1(C)C[C@@H](OC(=O)COC(=O)/C=C/c2ccc(-c3ccccc3)cc2)[C@]2(C)[C@H](C)CC[C@]3(CCC(=O)[C@H]32)[C@@H](C)[C@@H]1O	> 128 µg/mL	32 µg/mL (≈ 54.7 µM)	32 µg/mL (≈ 54.7 µM)	64 µg/mL (≈ 109 µM)	> 128 µg/mL	64 µg/mL (≈ 109 µM)
C=C[C@]1(C)C[C@@H](OC(=O)COC(=O)/C=C/c2ccc(C(F)(F)F)cc2F)[C@]2(C)[C@H](C)CC[C@]3(CCC(=O)[C@H]32)[C@@H](C)[C@@H]1O	> 128 µg/mL	16 µg/mL (≈ 26.9 µM)	16 µg/mL (≈ 26.9 µM)	8 µg/mL (≈ 13.5 µM)	128 µg/mL (≈ 215 µM)	64 µg/mL (≈ 108 µM)
C=C[C@]1(C)C[C@@H](OC(=O)COC(=O)/C=C/c2ccc(F)c(F)c2F)[C@]2(C)[C@H](C)CC[C@]3(CCC(=O)[C@H]32)[C@@H](C)[C@@H]1O	128 µg/mL (≈ 228 µM)	16 µg/mL (≈ 28.4 µM)	64 µg/mL (≈ 114 µM)	32 µg/mL (≈ 56.9 µM)	64 µg/mL (≈ 114 µM)	128 µg/mL (≈ 228 µM)
C=C[C@]1(C)C[C@@H](OC(=O)COC(=O)/C=C/c2ccc(F)cc2)[C@]2(C)[C@H](C)CC[C@]3(CCC(=O)[C@H]32)[C@@H](C)[C@@H]1O	128 µg/mL (≈ 243 µM)	32 µg/mL (≈ 60.8 µM)	32 µg/mL (≈ 60.8 µM)	16 µg/mL (≈ 30.4 µM)	128 µg/mL (≈ 243 µM)	32 µg/mL (≈ 60.8 µM)
C=C[C@]1(C)C[C@@H](OC(=O)COC(=O)/C=C/c2cc(Br)ccc2F)[C@]2(C)[C@H](C)CC[C@]3(CCC(=O)[C@H]32)[C@@H](C)[C@@H]1O	128 µg/mL (≈ 211 µM)	64 µg/mL (≈ 106 µM)	32 µg/mL (≈ 52.8 µM)	16 µg/mL (≈ 26.4 µM)	64 µg/mL (≈ 106 µM)	64 µg/mL (≈ 106 µM)
C=C[C@]1(C)C[C@@H](OC(=O)COC(=O)/C=C/c2cccc(C(F)(F)F)c2)[C@]2(C)[C@H](C)CC[C@]3(CCC(=O)[C@H]32)[C@@H](C)[C@@H]1O	128 µg/mL (≈ 222 µM)	64 µg/mL (≈ 111 µM)	64 µg/mL (≈ 111 µM)	32 µg/mL (≈ 55.5 µM)	64 µg/mL (≈ 111 µM)	256 µg/mL (≈ 444 µM)
C=C[C@]1(C)C[C@@H](OC(=O)COC(=O)/C=C/c2ccco2)[C@]2(C)[C@H](C)CC[C@]3(CCC(=O)[C@H]32)[C@@H](C)[C@@H]1O	64 µg/mL (≈ 128 µM)	8 µg/mL (≈ 16 µM)	8 µg/mL (≈ 16 µM)	64 µg/mL (≈ 128 µM)	64 µg/mL (≈ 128 µM)	32 µg/mL (≈ 64.2 µM)
C=C[C@]1(C)C[C@@H](OC(=O)COC(=O)/C=C/c2ccsc2)[C@]2(C)[C@H](C)CC[C@]3(CCC(=O)[C@H]32)[C@@H](C)[C@@H]1O	32 µg/mL (≈ 62.2 µM)	16 µg/mL (≈ 31.1 µM)	8 µg/mL (≈ 15.5 µM)	32 µg/mL (≈ 62.2 µM)	32 µg/mL (≈ 62.2 µM)	64 µg/mL (≈ 124 µM)
C=C[C@]1(C)C[C@@H](OC(=O)COC(=O)/C=C/c2ccc(F)c(Cl)c2)[C@]2(C)[C@H](C)CC[C@]3(CCC(=O)[C@H]32)[C@@H](C)[C@@H]1O	> 128 µg/mL	32 µg/mL (≈ 57 µM)	32 µg/mL (≈ 57 µM)	16 µg/mL (≈ 28.5 µM)	64 µg/mL (≈ 114 µM)	64 µg/mL (≈ 114 µM)
C=C[C@]1(C)C[C@@H](OC(=O)COC(=O)/C=C/c2ccccc2)[C@]2(C)[C@H](C)CC[C@]3(CCC(=O)[C@H]32)[C@@H](C)[C@@H]1O	> 128 µg/mL	16 µg/mL (≈ 31.5 µM)	16 µg/mL (≈ 31.5 µM)	4 µg/mL (≈ 7.86 µM)	128 µg/mL (≈ 252 µM)	32 µg/mL (≈ 62.9 µM)
C=C[C@]1(C)C[C@@H](OC(=O)COC(=O)/C=C/c2ccc(OC)cc2)[C@]2(C)[C@H](C)CC[C@]3(CCC(=O)[C@H]32)[C@@H](C)[C@@H]1O	> 128 µg/mL	2 µg/mL (≈ 3.71 µM)	8 µg/mL (≈ 14.9 µM)	4 µg/mL (≈ 7.43 µM)	32 µg/mL (≈ 59.4 µM)	16 µg/mL (≈ 29.7 µM)
C=C[C@]1(C)C[C@@H](OC(=O)COC(=O)/C=C/c2ccc(C(F)(F)F)cc2)[C@]2(C)[C@H](C)CC[C@]3(CCC(=O)[C@H]32)[C@@H](C)[C@@H]1O	> 128 µg/mL	8 µg/mL (≈ 13.9 µM)	16 µg/mL (≈ 27.7 µM)	16 µg/mL (≈ 27.7 µM)	64 µg/mL (≈ 111 µM)	128 µg/mL (≈ 222 µM)
C=C[C@]1(C)C[C@@H](OC(=O)COC(=O)/C=C/c2cccc(F)c2)[C@]2(C)[C@H](C)CC[C@]3(CCC(=O)[C@H]32)[C@@H](C)[C@@H]1O	> 128 µg/mL	32 µg/mL (≈ 60.8 µM)	32 µg/mL (≈ 60.8 µM)	16 µg/mL (≈ 30.4 µM)	> 128 µg/mL	64 µg/mL (≈ 122 µM)
C=C[C@]1(C)C[C@@H](OC(=O)COC(=O)/C=C/c2ccc(OC)c(OC)c2)[C@]2(C)[C@H](C)CC[C@]3(CCC(=O)[C@H]32)[C@@H](C)[C@@H]1O	> 128 µg/mL	16 µg/mL (≈ 28.1 µM)	8 µg/mL (≈ 14.1 µM)	4 µg/mL (≈ 7.03 µM)	64 µg/mL (≈ 113 µM)	32 µg/mL (≈ 56.3 µM)
C=C[C@]1(C)C[C@@H](OC(=O)COC(=O)/C=C/c2ccc3ccccc3c2)[C@]2(C)[C@H](C)CC[C@]3(CCC(=O)[C@H]32)[C@@H](C)[C@@H]1O	> 128 µg/mL	32 µg/mL (≈ 57.3 µM)	32 µg/mL (≈ 57.3 µM)	16 µg/mL (≈ 28.6 µM)	> 128 µg/mL	128 µg/mL (≈ 229 µM)
C=C[C@]1(C)C[C@@H](OC(=O)COC(=O)/C=C/c2ccccc2C(F)(F)F)[C@]2(C)[C@H](C)CC[C@]3(CCC(=O)[C@H]32)[C@@H](C)[C@@H]1O	> 128 µg/mL	64 µg/mL (≈ 111 µM)	64 µg/mL (≈ 111 µM)	32 µg/mL (≈ 55.5 µM)	> 128 µg/mL	128 µg/mL (≈ 222 µM)
C=C[C@]1(C)C[C@@H](OC(=O)COC(=O)/C=C/c2ccncc2)[C@]2(C)[C@H](C)CC[C@]3(CCC(=O)[C@H]32)[C@@H](C)[C@@H]1O	64 µg/mL (≈ 126 µM)	4 µg/mL (≈ 7.85 µM)	16 µg/mL (≈ 31.4 µM)	8 µg/mL (≈ 15.7 µM)	64 µg/mL (≈ 126 µM)	32 µg/mL (≈ 62.8 µM)
C=C[C@]1(C)C[C@@H](OC(=O)COC(=O)/C=C/c2ccc(OCc3ccccc3)cc2)[C@]2(C)[C@H](C)CC[C@]3(CCC(=O)[C@H]32)[C@@H](C)[C@@H]1O	64 µg/mL (≈ 104 µM)	32 µg/mL (≈ 52.1 µM)	32 µg/mL (≈ 52.1 µM)	16 µg/mL (≈ 26 µM)	> 128 µg/mL	128 µg/mL (≈ 208 µM)
C=C[C@]1(C)C[C@@H](OC(=O)COC(=O)/C=C/c2cccc(Cl)c2)[C@]2(C)[C@H](C)CC[C@]3(CCC(=O)[C@H]32)[C@@H](C)[C@@H]1O	128 µg/mL (≈ 236 µM)	8 µg/mL (≈ 14.7 µM)	32 µg/mL (≈ 58.9 µM)	16 µg/mL (≈ 29.5 µM)	64 µg/mL (≈ 118 µM)	32 µg/mL (≈ 58.9 µM)
C=C[C@]1(C)C[C@@H](OC(=O)COC(=O)/C=C/c2cccs2)[C@]2(C)[C@H](C)CC[C@]3(CCC(=O)[C@H]32)[C@@H](C)[C@@H]1O	64 µg/mL (≈ 124 µM)	16 µg/mL (≈ 31.1 µM)	16 µg/mL (≈ 31.1 µM)	32 µg/mL (≈ 62.2 µM)	32 µg/mL (≈ 62.2 µM)	64 µg/mL (≈ 124 µM)
C=C[C@]1(C)C[C@@H](OC(=O)COC(=O)/C=C/c2ccc(C#N)cc2)[C@]2(C)[C@H](C)CC[C@]3(CCC(=O)[C@H]32)[C@@H](C)[C@@H]1O	> 128 µg/mL	64 µg/mL (≈ 120 µM)	64 µg/mL (≈ 120 µM)	32 µg/mL (≈ 60 µM)	> 128 µg/mL	64 µg/mL (≈ 120 µM)
